The test system of test [1] is Pseudomonas aeruginosa. Description: Antibacterial activity against Pseudomonas aeruginosa ATCC 27853 at 1 mM after 24 to 48 hrs by Kirby-Bauer disc diffusion susceptibility test. Type of test: functional. To be noted: read-out: DIZ. Background: A growth-free zone around the sample is the usual read-out of agar diffusion tests.
For test [2], the system named is Burkholderia thailandensis. In words: Antibacterial activity against Burkholderia thailandensis E264 at 0.5 mM after 24 to 48 hrs by Kirby-Bauer disc diffusion susceptibility test. In kind it is functional. To be noted: read-out: DIZ.
Test [3] has as its target T1, 4-diphosphocytidyl-2-C-methyl-D-erythritol kinase (Burkholderia thailandensis (strain ATCC 700388 / DSM 13276 / CIP106301 / E264)) (UniProt Q2T1B6).
T1 sequence (whole entry): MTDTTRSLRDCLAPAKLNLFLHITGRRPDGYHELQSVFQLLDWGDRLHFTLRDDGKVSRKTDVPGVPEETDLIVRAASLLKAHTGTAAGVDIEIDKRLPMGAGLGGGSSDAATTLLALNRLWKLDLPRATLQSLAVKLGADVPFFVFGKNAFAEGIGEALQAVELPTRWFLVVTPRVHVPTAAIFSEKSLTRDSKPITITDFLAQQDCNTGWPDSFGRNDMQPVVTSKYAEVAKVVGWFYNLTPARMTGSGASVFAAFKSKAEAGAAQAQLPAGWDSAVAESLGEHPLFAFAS
In words: Binding affinity to Burkholderia thailandensis E264 recombinant IspE (1 to 293 residues) at 250 uM by STD-NMR analysis in presence of ADP and CDP.

Test [4] has as its target T1, 4-diphosphocytidyl-2-C-methyl-D-erythritol kinase (Burkholderia thailandensis (strain ATCC 700388 / DSM 13276 / CIP106301 / E264)). In words: Binding affinity to Burkholderia thailandensis E264 recombinant IspE (1 to 293 residues) at 250 uM by STD-NMR analysis in presence of ADP.
Test [5] concerns Pseudomonas aeruginosa. In words: Antibacterial activity against Pseudomonas aeruginosa ATCC 27853 at 0.1 mM after 24 to 48 hrs by Kirby-Bauer disc diffusion susceptibility test. Type of test: functional. To be noted: read-out: DIZ.
Test [6] has as its system Pseudomonas aeruginosa. Description: Antibacterial activity against Pseudomonas aeruginosa ATCC 27853 at 0.5 mM after 24 to 48 hrs by Kirby-Bauer disc diffusion susceptibility test. Type of test: functional. To be noted: read-out: DIZ.
Test [7] has as its system Burkholderia thailandensis. Description: Antibacterial activity against Burkholderia thailandensis E264 at 0.1 mM after 24 to 48 hrs by Kirby-Bauer disc diffusion susceptibility test. Type of test: functional. To be noted: read-out: DIZ.
Test [8] deals with T1, 4-diphosphocytidyl-2-C-methyl-D-erythritol kinase (Burkholderia thailandensis (strain ATCC 700388 / DSM 13276 / CIP106301 / E264)). In words: Binding affinity to Burkholderia thailandensis E264 recombinant IspE (1 to 293 residues) assessed as maximum spectral signal at 250 uM by STD-NMR analysis.
The subject of test [9] is Burkholderia thailandensis. In words: Antibacterial activity against Burkholderia thailandensis E264 at 1 mM after 24 to 48 hrs by Kirby-Bauer disc diffusion susceptibility test. To be noted: read-out: DIZ. In kind it is functional.
In test [10] the target is T2, 2-C-methyl-D-erythritol 4-phosphate cytidylyltransferase (Burkholderia thailandensis (strain ATCC 700388 / DSM 13276 / CIP106301 / E264)) (UniProt Q2SWT6).
T2 sequence (whole entry): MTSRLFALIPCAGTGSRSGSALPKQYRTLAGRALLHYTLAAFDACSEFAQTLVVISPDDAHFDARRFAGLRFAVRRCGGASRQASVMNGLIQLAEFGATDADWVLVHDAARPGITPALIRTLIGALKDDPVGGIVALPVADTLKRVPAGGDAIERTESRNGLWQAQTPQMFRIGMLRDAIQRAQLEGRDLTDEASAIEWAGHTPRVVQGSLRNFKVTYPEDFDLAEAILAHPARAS
Description: Binding affinity to Burkholderia thailandensis E264 recombinant IspD (1 to 236 residues) at 250 uM by STD-NMR analysis in presence of CDP.

The target of test [11] is T2, 2-C-methyl-D-erythritol 4-phosphate cytidylyltransferase (Burkholderia thailandensis (strain ATCC 700388 / DSM 13276 / CIP106301 / E264)). In words: Binding affinity to Burkholderia thailandensis E264 recombinant IspD (1 to 236 residues) assessed as maximum spectral signal at 250 uM by STD-NMR analysis.

This is an account of results in ChEMBL document CHEMBL3734707, “Synthesis and biological evaluation of pyrazolopyrimidines as potential antibacterial agents” (2015).

Active and inactive are the calls of the source. The calls are words filed in the database; no cut-off is given here.

As for `Cn1ncc2c(NCCc3c[nH]c4ccccc34)ncnc21`, the zone of inhibition at 1000 µM was found to be 0 mm in the test on Pseudomonas aeruginosa [1] and 14 mm in test [9]. The zone of inhibition at 500 µM in [2] was determined as 12 mm; with Pseudomonas aeruginosa [6], 0 mm. Also, in test [3], the outcome was inactive. Besides, the outcome in [4] was Active. For the same compound, the zone of inhibition at 100 µM (with Pseudomonas aeruginosa [5]; in test [7]) was 0 mm each time. Besides, the %max in test [8] amounted to 14%.

Consider `CC(C)(C)n1ncc2c(NCCO)ncnc21`, for which the zone of inhibition at 1000 µM turned out to be 20 mm with Pseudomonas aeruginosa [1] and 12 mm in test [9]. Besides, the zone of inhibition at 500 µM in test [2] was 8 mm; in the test with Pseudomonas aeruginosa [6] it was 12 mm. Also, the zone of inhibition at 100 µM (in the test on Pseudomonas aeruginosa [5]; in test [7]) was 0 mm throughout.

For `Cn1ncc2c(NCc3cccc(F)c3)ncnc21`, the outcome in test [3] was inactive. The result in test [4] was Active. Moreover, the %max in test [8] amounted to 24%.

For `Cn1ncc2c(NCCc3ccc(Cl)cc3Cl)ncnc21`, in test [3], the outcome was inactive. Besides, the result in [4] and in test [10] was Active. The %max stood at 28% in test [8] and 8% in test [11].

Regarding `CC(C)(C)n1ncc2c(NCc3cccc([N+](=O)[O-])c3)ncnc21`, the result in [3] was inactive. For the same compound, the result in test [4] was Active. Moreover, in [8], the %max came to 21%.

`CC(C)(C)n1ncc2c(NCCc3c(F)cccc3Cl)ncnc21`: the result in [3] and in test [10] was inactive. Also, in test [4], the result was Active. Besides, the %max in test [8] turned out to be 17%; in test [11], 10%.

Regarding `Cn1ncc2c(NCc3ccccc3F)ncnc21`, the result in test [3] was inactive. Also, the result in [4] was Active. Moreover, the %max in test [8] is 14%.

On to `C[C@H](Nc1ncnc2c1cnn2C)c1ccccc1`, for which the result in test [3] was inactive. Further, in test [4], the result was Active. The %max in [8] was 17%.

For `Cn1ncc2c(NCc3ccc(F)cc3)ncnc21`, the outcome in test [3] was inactive. In addition, the result in [4] was Active. Moreover, the %max in [8] is 20%.

For the compound `Cn1ncc2c(NCc3ccc(Cl)c(Cl)c3)ncnc21`, in test [3], the outcome was inactive. Moreover, the result in test [4] and in test [10] was Active. For the same compound, the %max in test [8] came out at 24%; in test [11], 6%.

As to `Cn1ncc2c(NCCc3ccccc3F)ncnc21`, in [3], the outcome was inactive. Also, in test [4], the result was Active. The %max in test [8] was determined as 10%.

For the compound `Cn1ncc2c(NCc3ccc(Cl)cc3)ncnc21`, in [3], the result was inactive. In addition, the outcome in [4] and in test [10] was Active. In addition, the %max in test [8] was 12%; in test [11], 6%.

With `Cn1ncc2c(NCCc3ccc(O)cc3)ncnc21`, in [3], the outcome was inactive. The result in test [4] and in test [10] was Active. Moreover, the %max in test [8] came out at 16%; in test [11], 14%.

For the compound `NC[C@H]1O[C@H](O[C@H]2[C@H](O)[C@@H](O[C@H]3O[C@H](CO)[C@@H](O)[C@H](N)[C@H]3O)[C@H](N)C[C@@H]2N)[C@H](O)[C@@H](O)[C@@H]1O` [KANAMYCIN], the zone of inhibition at 1000 µM in the test on Pseudomonas aeruginosa [1] is 0 mm; in [9] it was 30 mm. Besides, the zone of inhibition at 500 µM in [2] was determined as 22 mm; in the test with Pseudomonas aeruginosa [6] it was 0 mm. The zone of inhibition at 100 µM with Pseudomonas aeruginosa [5] turned out to be 0 mm; in test [7] it was 6 mm.

With `CC(C)(C)n1ncc2c(NCc3ccccc3)ncnc21`, in [3], the outcome was inactive. The outcome in [4] was Active. For the same compound, in [8], the %max stood at 15%.

Regarding `CC(C)(C)n1ncc2c(NCc3ccco3)ncnc21`, the result in [3] was inactive. For the same compound, in test [4], the outcome was Active. The %max in test [8] stood at 17%.

As to `Cn1ncc2c(NCCc3cccc(F)c3)ncnc21`, the outcome in test [3] was inactive. The result in test [4] was Active. Further, the %max in test [8] amounted to 17%.

`Cn1ncc2c(NCCc3ccc(Cl)cc3)ncnc21`: the outcome in test [3] was inactive. In addition, in [4], the result was Active. The %max in test [8] stood at 12%.

For the compound `Cn1ncc2c(NCc3ccccc3)ncnc21`, the result in test [3] was inactive. Also, in test [4], the outcome was Active. Also, the %max in test [8] was found to be 13%.

Turning to `Cn1ncc2c(NCCc3ccc(F)cc3)ncnc21`, the outcome in test [3] was inactive. Besides, the outcome in [4] was Active. The %max in test [8] turned out to be 11%.

In the case of `CC(C)(C)n1ncc2c(NCCc3c(Cl)cccc3Cl)ncnc21`, the outcome in test [3] was inactive. In [4], the outcome was Active. In addition, the %max in [8] amounted to 12%.

Regarding `Cn1ncc2c(NCCc3c(F)cccc3Cl)ncnc21`, the result in test [3] and in [10] was inactive. Moreover, the result in test [4] was Active. The %max in test [8] was determined as 14%; in test [11], 6%.

Regarding `CC(C)(C)n1ncc2c(NCc3ccc(Cl)c(Cl)c3)ncnc21`, the result in [3] was inactive. Further, the result in test [4] was Active. Besides, the %max in test [8] stood at 21%.
